Assay results taken from patent US20260183275A1, “SUBSTITUTED QUINOLONE COMPOUNDS USEFUL AS INHIBITORS OF TLR9” (Bristol-Myers Squibb Company, priority 2022, published 2026).

Key:
Type in all cases: cell-based
[1] = target: T1, human TLR8 (Homo sapiens, UniProt Q9NR97); test: TLR8 inhibition reporter assay (HEK-Blue cells, SEAP reporter); conditions: HEK-Blue cells overexpressing human TLR8; stimulated with R848 15.9 μM; SEAP read after 22 hour; dose range 0.05 nM-50 μM
T1 construct: host or cells: HEK-Blue cells
T1 sequence (Q9NR97 27-1041): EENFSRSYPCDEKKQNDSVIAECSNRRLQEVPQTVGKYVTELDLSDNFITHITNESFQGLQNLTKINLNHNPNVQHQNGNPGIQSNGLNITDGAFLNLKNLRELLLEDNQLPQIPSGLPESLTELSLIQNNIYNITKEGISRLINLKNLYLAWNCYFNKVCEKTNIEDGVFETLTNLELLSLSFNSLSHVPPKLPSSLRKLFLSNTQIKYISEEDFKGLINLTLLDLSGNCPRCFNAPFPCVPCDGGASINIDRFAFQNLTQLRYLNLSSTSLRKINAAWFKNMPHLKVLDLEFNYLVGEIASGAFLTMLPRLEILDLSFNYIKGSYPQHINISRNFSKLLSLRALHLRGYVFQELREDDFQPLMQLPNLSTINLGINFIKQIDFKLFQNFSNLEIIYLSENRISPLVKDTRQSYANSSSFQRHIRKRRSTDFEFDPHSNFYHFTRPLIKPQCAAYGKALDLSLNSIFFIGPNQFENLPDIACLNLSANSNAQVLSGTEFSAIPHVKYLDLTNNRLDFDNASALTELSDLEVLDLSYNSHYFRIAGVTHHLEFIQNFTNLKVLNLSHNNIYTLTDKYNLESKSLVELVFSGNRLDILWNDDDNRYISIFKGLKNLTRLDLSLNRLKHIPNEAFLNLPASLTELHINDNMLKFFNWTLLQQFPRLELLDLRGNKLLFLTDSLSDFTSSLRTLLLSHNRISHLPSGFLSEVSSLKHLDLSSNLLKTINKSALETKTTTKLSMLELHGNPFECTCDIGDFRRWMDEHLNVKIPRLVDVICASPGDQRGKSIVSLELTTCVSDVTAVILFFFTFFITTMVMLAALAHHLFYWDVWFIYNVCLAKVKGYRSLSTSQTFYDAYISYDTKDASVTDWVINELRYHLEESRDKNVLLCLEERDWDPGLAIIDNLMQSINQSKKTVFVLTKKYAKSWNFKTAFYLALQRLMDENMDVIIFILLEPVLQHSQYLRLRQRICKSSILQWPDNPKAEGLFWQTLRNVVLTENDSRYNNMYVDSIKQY
Experimental: (§1) HEK-Blue™-cells (Invivogen) overexpressing human TLR7, TLR8 or TLR9 receptors were used for screening inhibitors of these receptors using an inducible SEAP (secreted embryonic alkaline phosphatase) reporter gene under the control of the IFN-β minimal promoter fused to five NF-κB and AP-1-binding sites. Briefly, cells are seeded into Greiner 384 well plates (15000 cells per well for TLR7, 20,000 for TLR8 and 25,000 for TLR9) and then treated with test compounds in DMSO to yield a final dose response concentration range of 0.05 nM-50 μM. After a 30 minute compound pre-treatment at room temperature, the cells are then stimulated with a TLR7 ligand (gardiquimod at a final concentration of 7.5 μM), TLR8 ligand (R848 at a final concentration of 15.9 μM) or TLR9 ligand (ODN2006 at a final concentration of 5 nM) to activate NF-κB and AP-1 which induce the production of SEAP. After a 22 hour incubation at 37° C., 5% CO2, SEAP levels are determined with the addition of HEK-Blue™ Detection reagent (Invivogen), a cell culture medium that allows for detection of SEAP, according to manufacturer's specifications. The percent inhibition is determined as the % reduction in the HEK-Blue signal present in wells treated with agonist plus DMSO alone compared to wells treated with a known inhibitor.

[2] = target: T2, human TLR7 (Homo sapiens, UniProt Q9NYK1); test: TLR7 inhibition reporter assay (HEK-Blue cells, SEAP reporter); conditions: HEK-Blue cells overexpressing human TLR7; stimulated with gardiquimod 7.5 μM; SEAP read after 22 hour; dose range 0.05 nM-50 μM
T2 construct: host or cells: HEK-Blue cells
T2 sequence (Q9NYK1 27-1049): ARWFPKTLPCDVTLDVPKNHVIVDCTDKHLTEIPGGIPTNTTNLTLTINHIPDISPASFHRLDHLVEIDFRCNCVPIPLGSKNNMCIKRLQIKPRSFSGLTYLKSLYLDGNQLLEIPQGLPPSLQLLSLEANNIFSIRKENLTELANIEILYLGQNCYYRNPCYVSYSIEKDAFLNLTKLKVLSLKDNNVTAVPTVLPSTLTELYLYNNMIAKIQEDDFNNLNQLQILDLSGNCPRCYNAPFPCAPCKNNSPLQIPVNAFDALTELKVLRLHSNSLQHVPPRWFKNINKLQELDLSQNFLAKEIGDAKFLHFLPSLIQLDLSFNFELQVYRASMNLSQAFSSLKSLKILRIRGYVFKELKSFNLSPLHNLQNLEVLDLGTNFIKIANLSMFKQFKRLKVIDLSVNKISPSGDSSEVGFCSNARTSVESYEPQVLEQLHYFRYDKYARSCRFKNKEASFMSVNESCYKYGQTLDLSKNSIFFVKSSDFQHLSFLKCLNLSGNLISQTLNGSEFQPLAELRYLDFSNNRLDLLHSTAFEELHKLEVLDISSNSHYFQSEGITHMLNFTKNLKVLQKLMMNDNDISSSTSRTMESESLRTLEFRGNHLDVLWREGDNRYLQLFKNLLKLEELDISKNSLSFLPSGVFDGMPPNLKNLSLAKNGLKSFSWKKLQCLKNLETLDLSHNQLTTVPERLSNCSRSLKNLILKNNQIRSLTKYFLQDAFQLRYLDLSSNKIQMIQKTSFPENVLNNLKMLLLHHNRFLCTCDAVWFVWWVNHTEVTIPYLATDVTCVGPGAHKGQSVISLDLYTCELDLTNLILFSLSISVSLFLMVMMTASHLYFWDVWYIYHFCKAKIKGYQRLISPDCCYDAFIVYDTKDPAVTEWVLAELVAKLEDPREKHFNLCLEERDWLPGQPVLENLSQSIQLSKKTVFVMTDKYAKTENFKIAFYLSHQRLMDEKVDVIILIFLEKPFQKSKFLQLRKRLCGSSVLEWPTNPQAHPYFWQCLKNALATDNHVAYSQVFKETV
Experimental: as §1

[3] = target: T3, human TLR9 (Homo sapiens, UniProt Q9NR96); test: TLR9 inhibition reporter assay (HEK-Blue cells, SEAP reporter); conditions: HEK-Blue cells overexpressing human TLR9; stimulated with ODN2006 5 nM; SEAP read after 22 hour; dose range 0.05 nM-50 μM
T3 construct: host or cells: HEK-Blue cells
T3 sequence (Q9NR96 26-1032): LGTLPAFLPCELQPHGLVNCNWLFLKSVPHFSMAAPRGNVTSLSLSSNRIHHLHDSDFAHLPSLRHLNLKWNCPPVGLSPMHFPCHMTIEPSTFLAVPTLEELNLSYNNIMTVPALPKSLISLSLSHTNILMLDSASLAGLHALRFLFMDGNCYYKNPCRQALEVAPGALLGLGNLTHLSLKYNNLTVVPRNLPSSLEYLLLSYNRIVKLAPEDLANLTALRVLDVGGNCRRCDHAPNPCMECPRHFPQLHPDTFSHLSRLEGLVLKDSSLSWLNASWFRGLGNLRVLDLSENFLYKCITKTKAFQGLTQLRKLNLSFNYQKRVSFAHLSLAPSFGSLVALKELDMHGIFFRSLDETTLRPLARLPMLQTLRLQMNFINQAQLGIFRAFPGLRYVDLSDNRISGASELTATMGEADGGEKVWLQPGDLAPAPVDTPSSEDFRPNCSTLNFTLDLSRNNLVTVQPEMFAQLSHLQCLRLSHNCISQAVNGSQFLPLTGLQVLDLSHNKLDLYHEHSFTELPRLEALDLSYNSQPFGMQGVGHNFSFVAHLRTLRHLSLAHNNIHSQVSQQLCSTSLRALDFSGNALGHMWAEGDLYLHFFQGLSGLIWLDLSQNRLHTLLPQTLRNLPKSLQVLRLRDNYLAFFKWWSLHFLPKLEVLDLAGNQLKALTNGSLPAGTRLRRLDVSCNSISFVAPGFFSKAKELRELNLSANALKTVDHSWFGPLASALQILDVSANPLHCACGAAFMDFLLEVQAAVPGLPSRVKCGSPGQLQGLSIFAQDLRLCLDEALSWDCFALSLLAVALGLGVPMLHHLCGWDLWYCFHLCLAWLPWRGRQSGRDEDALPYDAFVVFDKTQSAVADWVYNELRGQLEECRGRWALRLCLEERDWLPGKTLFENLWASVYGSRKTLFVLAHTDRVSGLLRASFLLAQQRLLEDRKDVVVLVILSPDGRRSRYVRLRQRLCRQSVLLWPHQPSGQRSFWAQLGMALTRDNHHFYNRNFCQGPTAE
Experimental: as §1

SMILES	IC50 [1] [nM]	IC50 [2] [nM]	IC50 [3] [nM]
CC(C)N1CCN(c2ccc(-c3ccc4[nH]c(=O)c(-c5ccncc5)cc4c3)cc2)CC1 [Example 17, 6-{4-[4-(propan-2-yl)piperazin-1-yl]phenyl}-3-(pyridin-4-yl)-1,2-dihydroquinolin-2-one]	949	338	171
CC(C)N1CCN(c2ccc(-c3ccc4[nH]c(=O)c(-c5ccccc5)cc4c3)cc2)CC1 [Example 18, 3-phenyl-6-{4-[4-(propan-2-yl)piperazin-1-yl]phenyl}-1,2-dihydroquinolin-2-one]	16300	16700	190
CC(C)N1CCN(c2ccc(-c3ccc4[nH]c(=O)c(-c5ccc(C(=O)N6CCCC6(C)C)cc5)cc4c3)cc2)CC1 [Example 19, 3-[4-(2,2-dimethylpyrrolidine-1-carbonyl)phenyl]-6-{4-[4-(propan-2-yl)piperazin-1-yl]phenyl}-1,2-dihydroquinolin-2-one]	≥ 50000	2400	200
CC(C)N1CCN(c2ccc(-c3ccc4[nH]c(=O)c(-c5cc(F)ccc5F)cc4c3)cc2)CC1 [Example 20, 3-(2,5-difluorophenyl)-6-{4-[4-(propan-2-vi)piperazin-1-yl]phenyl}-1,2-dihydroquinolin-2-one]	5410	1560	203
CCCC(=O)Nc1ccc(-c2cc3cc(-c4ccc(N5CCN(C(C)C)CC5)cc4)ccc3[nH]c2=O)cc1 [Example 21, N-[4-(2-oxo-6-{4-[4-(propan-2-yl)piperazin-1-yl]phenyl}-1,2-dihydroquinolin-3-yl)phenyl]butanamide]	≥ 50000	≥ 50000	214
CC(C)N1CCN(c2ccc(-c3ccc4[nH]c(=O)c(-c5ccc(N6CC[C@H](F)C6)cc5)cc4c3)cc2)CC1 [Example 22, 3-{4-[(3S)-3-fluoropyrrolidin-1-yl]phenyl}-6-{4-[4-(propan-2-yl)piperazin-1-yl]phenyl}-1,2-dihydroquinolin-2-one]	≥ 50000	≥ 50000	216
CC(C)N1CCN(c2ccc(-c3ccc4c(c3)cc(-c3ccc(N(C)S(C)(=O)=O)cc3)c(=O)n4C)cc2)CC1 [Example 23, N-methyl-N-[4-(1-methyl-2-oxo-6-{4-[4-(propan-2-yl)piperazin-1-yl]phenyl}-1,2-dihydroquinolin-3-yl)phenyl]methanesulfonamide]	36000	5510	221
CC(C)N1CCN(c2ccc(-c3ccc4[nH]c(=O)c(-c5cccc(F)c5F)cc4c3)cc2)CC1 [Example 24, 3-(2,3-difluorophenyl)-6-{4-[4-(propan-2-yl)piperazin-1-yl]phenyl}-1,2-dihydroquinolin-2-one]	15200	2000	224
Cc1ccccc1-c1cc2cc(-c3ccc(N4CCN(C(C)C)CC4)cc3)ccc2[nH]c1=O [Example 25, 3-(2-methylphenyl)-6-{4-[4-(propan-2-yl)piperazin-1-yl]phenyl}-1,2-dihydroquinolin-2-one]	1390	6480	226
CC(C)C(=O)Nc1ccc(-c2cc3cc(-c4ccc(N5CCN(C(C)C)CC5)cc4)ccc3n(C)c2=O)cc1 [Example 26, 2-methyl-N-[4-(1-methyl-2-oxo-6-{4-[4-(propan-2-yl)piperazin-1-yl]phenyl}-1,2-dihydroquinolin-3-yl)phenyl]propanamide]	673	1800	231
CC(C)N1CCN(c2ccc(-c3ccc4c(c3)cc(-c3ccc(S(C)(=O)=O)cc3)c(=O)n4C)cc2)CC1 [Example 27, 3-(4-methanesulfonylphenyl)-1-methyl-6-{4-[4-(propan-2-yl)piperazin-1-yl]phenyl}-1,2-dihydroquinolin-2-one]	1040	2500	233
COC(=O)c1ccc(-c2cc3cc(-c4ccc(N5CCN(C(C)C)CC5)cc4)ccc3[nH]c2=O)cc1 [Example 28, methyl 4-(2-oxo-6-{4-[4-(propan-2-yl)piperazin-1-yl]phenyl}-1,2-dihydroquinolin-3-yl)benzoate]	≥ 50000	≥ 50000	2280
